Results from patent publication US10941157B2, “Pesticidal compositions and uses thereof” (Gilead Apollo, LLC, priority 2015, dated 2021).
≈ marks a conversion by molar mass, not a printed value. Like-named read-outs stand apart in the source and are kept apart here.

Tests used:
Assay type in all cases: cell-based
Botrtyis cinerea (Bc) = assay: In vitro pathogen growth inhibition assay, Bc; details: 48 h
Procedure: (§1) A growth inhibition assay was conducted to determine the ability of compounds to control the growth of fungal pathogens, such as Botrtyis cinerea (Bc), Collectotrichum graminicola (Cg), Diplodia maydis (Dm), Fusarium moniliforme (Fm), Fusarium virguliforme (Fv), Phytophthora capsici (Pc), Rhizoctonia solani (Rs), and Septoria tritici (St). The compounds listed in Table 1 were each dissolved in DMSO at 2.5 mg/ml to produce compound stock solutions (“stocks”). […] Negative controls on each plate included 2% DMSO, water, and a blank (media+2% DMSO). Fungal spores were isolated from previously sub-cultured plates of Botrtyis cinerea (Bc), Collectotrichum graminicola (Cg), Diplodia maydis (Dm), Fusarium moniliforme (Fm), Fusarium virguliforme (Fv), Phytophthora capsici (Pc), and Septoria tritici (St). The isolated spores were diluted to individual concentrations with a 17% V8 liquid media. For Rhizoctonia solani (Rs), 1.5 mm mycelial plugs were used in place of spores and ¼ Potato Dextrose Broth (PDB) was used for dilution. The spore concentrations and plug sizes were based on growth curves generated at 48 hours for each pathogen. In a second 96-well plate, the spores or mycelial plugs, media, diluted compound solutions, and controls were combined. Once the compound was added, a true final concentration of compound in each well was measured by an OD600 reading, which adjusted for any compound precipitation that might have occurred in the well. Plate readings were repeated at both 24 and 48 hours. The blank negative control was used as a background subtraction. Additional visual ratings were performed at both 24 and 48 hours for checking on precipitation and confirming efficacy. […] Both tables list the concentration of each compound that was sufficient to ≥90% inhibition of growth for each of the fungal pathogens listed above. In addition, some of compounds were tested in a yeast growth inhibition assay for Saccharomyces cerevisiae (Sc). Table 2 lists the concentration of the tested compound that was sufficient to ≥75% inhibition of Saccharomyces cerevisiae (Sc).

[1] = test system: Collectotrichum graminicola (Cg); assay: In vitro pathogen growth inhibition assay, Cg; details: 48 h
Procedure: as §1

Diplodia maydis (Dm) = assay: In vitro pathogen growth inhibition assay, Dm; details: Stenocarpella maydis, 48 h
Procedure: as §1

[2] = test system: Fusarium moniliforme (Fm); assay: In vitro pathogen growth inhibition assay, Fm; details: Fusarium verticillioides
Procedure: as §1

[3] = test system: Fusarium virguliforme (Fv); assay: In vitro pathogen growth inhibition assay, Fv
Procedure: as §1

[4] = test system: Phytophthora capsici (Pc); assay: In vitro pathogen growth inhibition assay, Pc; details: 48 h
Procedure: as §1

Rhizoctonia solani (Rs) = assay: In vitro pathogen growth inhibition assay, Rs (mycelial plugs); details: Rhizoctonia solani, 48 h, mycelial plugs
Procedure: as §1

Septoria tritici (St) = assay: In vitro pathogen growth inhibition assay, St; details: Zymoseptoria tritici, 48 h
Procedure: as §1

[5] = ≥90% inhibition, 48 hours vs 2% DMSO control, read-out: Compound Concentration (ppm) sufficient for ≥90% inhibition of growth, Bc
[6] = ≥90% inhibition, 48 hours vs 2% DMSO control, read-out: Compound Concentration (ppm) sufficient for ≥90% inhibition of growth, Cg
[7] = ≥90% inhibition, 48 hours vs 2% DMSO control, read-out: Compound Concentration (ppm) sufficient for ≥90% inhibition of growth, Dm
[8] = ≥90% inhibition, 48 hours vs 2% DMSO control, read-out: Compound Concentration (ppm) sufficient for ≥90% inhibition of growth, Fm
[9] = ≥90% inhibition, 48 hours vs 2% DMSO control, read-out: Compound Concentration (ppm) sufficient for ≥90% inhibition of growth, Fv
[10] = ≥90% inhibition, 48 hours vs 2% DMSO control, read-out: Compound Concentration (ppm) sufficient for ≥90% inhibition of growth, Pc
[11] = ≥90% inhibition, 48 hours vs 2% DMSO control, read-out: Compound Concentration (ppm) sufficient for ≥90% inhibition of growth, Rs
[12] = ≥90% inhibition, 48 hours vs 2% DMSO control, read-out: Compound Concentration (ppm) sufficient for ≥90% inhibition of growth, St
[13] = ≥90% growth inhibition, 48 hours, vs 2% DMSO control, read-out: Compound Concentration (ppm) sufficient for ≥90% inhibition of Bc
[14] = ≥90% growth inhibition, 48 hours, vs 2% DMSO control, read-out: Compound Concentration (ppm) sufficient for ≥90% inhibition of Cg
[15] = ≥90% growth inhibition, 48 hours, vs 2% DMSO control, read-out: Compound Concentration (ppm) sufficient for ≥90% inhibition of Dm
[16] = ≥90% growth inhibition, 48 hours, vs 2% DMSO control, read-out: Compound Concentration (ppm) sufficient for ≥90% inhibition of Fm
[17] = ≥90% growth inhibition, 48 hours, vs 2% DMSO control, read-out: Compound Concentration (ppm) sufficient for ≥90% inhibition of Fv
[18] = ≥90% growth inhibition, 48 hours, vs 2% DMSO control, read-out: Compound Concentration (ppm) sufficient for ≥90% inhibition of Pc
[19] = ≥90% growth inhibition, 48 hours, vs 2% DMSO control, read-out: Compound Concentration (ppm) sufficient for ≥90% inhibition of Rs
[20] = ≥90% growth inhibition, 48 hours, vs 2% DMSO control, read-out: Compound Concentration (ppm) sufficient for ≥90% inhibition of St

SMILES | IC90 (Botrtyis cinerea (Bc); [5]) | IC90 [1, 6] | IC90 (Diplodia maydis (Dm); [7]) | IC90 [2, 8] | IC90 [3, 9] | IC90 [4, 10] | IC90 (Rhizoctonia solani (Rs); [11]) | IC90 (Septoria tritici (St); [12]) | IC90 (Botrtyis cinerea (Bc); [13]) | IC90 [1, 14] | IC90 (Diplodia maydis (Dm); [15]) | IC90 [2, 16] | IC90 [3, 17] | IC90 [4, 18] | IC90 (Rhizoctonia solani (Rs); [19]) | IC90 (Septoria tritici (St); [20])
Cc1c(-n2nccn2)sc2c1c(=O)n(C(C)(C)C(=O)NC(C)C)c(=O)n2C[C@H](OC(C)C)c1cc(F)ccc1OCC1COC1 [Compound I-069] | 0.4 µg/mL (≈ 0.622 µM) | 0.4 µg/mL (≈ 0.622 µM) | 0.4 µg/mL (≈ 0.622 µM) | 0.08 µg/mL (≈ 0.124 µM) | 0.4 µg/mL (≈ 0.622 µM) | > 50 µg/mL | ≥ 0.4 µg/mL | ≥ 50 µg/mL | – | – | – | – | – | – | – | –
COc1ccc(F)cc1[C@H](Cn1c(=O)n([C@@H](C)C(=O)NC(C)C)c(=O)c2c(C)c(-n3nccn3)sc21)OCC(C)(C)C#N [Compound I-254] | – | – | – | – | – | – | – | – | 2 µg/mL (≈ 3.27 µM) | > 50 µg/mL | ≥ 10 µg/mL | 2 µg/mL (≈ 3.27 µM) | > 50 µg/mL | > 50 µg/mL | > 50 µg/mL | > 50 µg/mL
COc1ccc(F)cc1[C@H](Cn1c(=O)n(C(C)(C)C(N)=O)c(=O)c2c(C)c(-n3nccn3)sc21)OC1CCC(=O)CC1 [Compound I-124] | ≥ 0.4 µg/mL | 10 µg/mL (≈ 16.7 µM) | ≥ 2 µg/mL | 0.4 µg/mL (≈ 0.668 µM) | 10 µg/mL (≈ 16.7 µM) | 50 µg/mL (≈ 83.5 µM) | 2 µg/mL (≈ 3.34 µM) | > 50 µg/mL | – | – | – | – | – | – | – | –
COCCO[C@@H](Cn1c(=O)n(C(C)(C)C(=O)NC2CCC2)c(=O)c2c(C)c(-n3cccn3)sc21)c1cc(F)ccc1OC [Compound I-299] | – | – | – | – | – | – | – | – | 2 µg/mL (≈ 3.26 µM) | 10 µg/mL (≈ 16.3 µM) | 50 µg/mL (≈ 81.5 µM) | 0.4 µg/mL (≈ 0.652 µM) | 2 µg/mL (≈ 3.26 µM) | > 50 µg/mL | 50 µg/mL (≈ 81.5 µM) | > 50 µg/mL
COc1ccc(F)cc1[C@H](Cn1c(=O)n(C(C)(C)C(=O)N2CCCCC2)c(=O)c2c(C)c(-n3nccn3)sc21)OC1CCC(=O)CC1 [Compound I-052] | 0.4 µg/mL (≈ 0.6 µM) | ≥ 0.4 µg/mL | 2 µg/mL (≈ 3 µM) | 0.08 µg/mL (≈ 0.12 µM) | 0.4 µg/mL (≈ 0.6 µM) | > 50 µg/mL | 2 µg/mL (≈ 3 µM) | > 50 µg/mL | – | – | – | – | – | – | – | –
COc1ccc(F)cc1[C@H](Cn1c(=O)n(C(C)(C)C(=O)N2CCCC2)c(=O)c2c(C)c(-n3nccn3)sc21)OC[C@H](C)O [Compound I-133] | 2 µg/mL (≈ 3.25 µM) | 0.4 µg/mL (≈ 0.651 µM) | 2 µg/mL (≈ 3.25 µM) | 0.4 µg/mL (≈ 0.651 µM) | 0.4 µg/mL (≈ 0.651 µM) | 50 µg/mL (≈ 81.3 µM) | ≥ 2 µg/mL | ≥ 50 µg/mL | – | – | – | – | – | – | – | –
COCCOc1ccc(F)cc1[C@H](Cn1c(=O)n(C(C)(C)C(=O)NC(C)C)c(=O)c2c(C)c(-n3nccn3)sc21)OC1CCOCC1 [Compound I-076] | 2 µg/mL (≈ 2.97 µM) | 0.4 µg/mL (≈ 0.595 µM) | 0.4 µg/mL (≈ 0.595 µM) | 0.08 µg/mL (≈ 0.119 µM) | 0.4 µg/mL (≈ 0.595 µM) | ≥ 50 µg/mL | 0.08 µg/mL (≈ 0.119 µM) | ≥ 10 µg/mL | – | – | – | – | – | – | – | –
COc1ccc(F)cc1[C@H](Cn1c(=O)n(C(C)(C)C(=O)N2CCCC2)c(=O)c2c(C)c(-n3cccn3)sc21)OC1CCC(=O)CC1 [Compound I-122] | 2 µg/mL (≈ 3.07 µM) | ≥ 2 µg/mL | 10 µg/mL (≈ 15.3 µM) | 0.4 µg/mL (≈ 0.614 µM) | ≥ 2 µg/mL | > 50 µg/mL | 2 µg/mL (≈ 3.07 µM) | > 50 µg/mL | – | – | – | – | – | – | – | –
